Experimental data reported in ChEMBL document CHEMBL1909294, “Translating clinical findings into knowledge in drug safety evaluation--drug induced liver injury prediction system (DILIps)” (PLoS Comput Biol, 2011).

Assays:
[1] = system: Hepatotoxicity;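 as to HepSE Combined Scores: combined hepatic side effect score as listed in the training data of the Drug Induced Liver Injury Prediction System (DILIps)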;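 as to HepSE bilirubinemia: bilirubinemia hepatic side effect score drawn from the DILIps training data, a prediction system for drug-induced liver injury; call rule not given here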;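 as to HepSE cholecystitis: Cholecystitis-related hepatic side effect score drawn from the DILIps (drug-induced liver injury prediction) training data set; call rule not given here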;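 as to HepSE elevated liver function tests: hepatic side effect score for raised liver function tests, as recorded in the DILIps training set used for predicting drug-induced liver injury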; as to HepSE liver disease: call rule not given here;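 as to HepSE liver fatty: hepatic side effect score for fatty liver, taken from the DILIps training set for predicting drug-induced liver injury; call rule not given here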;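 as to HepSE liver function tests abnormal: hepatic side effect score taken from the DILIps (drug-induced liver injury prediction system) training data, here covering abnormal liver function test findings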
[2] = system: Hepatotoxicity; remark: listed apart in the source;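 as to HepSE Combined Scores: combined hepatic side effect score as listed in the training data of the Drug Induced Liver Injury Prediction System (DILIps)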;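 as to HepSE bilirubinemia: bilirubinemia hepatic side effect score drawn from the DILIps training data, a prediction system for drug-induced liver injury; call rule not given here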;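 as to HepSE cholecystitis: Cholecystitis-related hepatic side effect score drawn from the DILIps (drug-induced liver injury prediction) training data set; call rule not given here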;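 as to HepSE elevated liver function tests: hepatic side effect score for raised liver function tests, as recorded in the DILIps training set used for predicting drug-induced liver injury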; as to HepSE liver disease: call rule not given here;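 as to HepSE liver fatty: hepatic side effect score for fatty liver, taken from the DILIps training set for predicting drug-induced liver injury; call rule not given here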
[3] = system: Hepatotoxicity; remark: listed apart in the source;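 as to HepSE Combined Scores: combined hepatic side effect score as listed in the training data of the Drug Induced Liver Injury Prediction System (DILIps)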;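 as to HepSE bilirubinemia: bilirubinemia hepatic side effect score drawn from the DILIps training data, a prediction system for drug-induced liver injury; call rule not given here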;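 as to HepSE cholecystitis: Cholecystitis-related hepatic side effect score drawn from the DILIps (drug-induced liver injury prediction) training data set; call rule not given here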;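 as to HepSE elevated liver function tests: hepatic side effect score for raised liver function tests, as recorded in the DILIps training set used for predicting drug-induced liver injury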; as to HepSE liver disease: call rule not given here;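 as to HepSE liver fatty: hepatic side effect score for fatty liver, taken from the DILIps training set for predicting drug-induced liver injury; call rule not given here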
[4] = system: Hepatotoxicity; remark: listed apart in the source;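 as to HepSE Combined Scores: combined hepatic side effect score as listed in the training data of the Drug Induced Liver Injury Prediction System (DILIps)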;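 as to HepSE bilirubinemia: bilirubinemia hepatic side effect score drawn from the DILIps training data, a prediction system for drug-induced liver injury; call rule not given here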;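 as to HepSE cholecystitis: Cholecystitis-related hepatic side effect score drawn from the DILIps (drug-induced liver injury prediction) training data set; call rule not given here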;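 as to HepSE elevated liver function tests: hepatic side effect score for raised liver function tests, as recorded in the DILIps training set used for predicting drug-induced liver injury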; as to HepSE liver disease: call rule not given here;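 as to HepSE liver fatty: hepatic side effect score for fatty liver, taken from the DILIps training set for predicting drug-induced liver injury; call rule not given here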
[5] = system: Hepatotoxicity; remark: listed apart in the source; as to HepSE liver disease: call rule not given here
[6] = system: Hepatotoxicity; remark: listed apart in the source; as to HepSE liver disease: call rule not given here
[7] = system: Hepatotoxicity; remark: listed apart in the source
[8] = system: Hepatotoxicity; remark: listed apart in the source
[9] = system: Hepatotoxicity; remark: listed apart in the source
[10] = system: Hepatotoxicity; remark: listed apart in the source
[11] = system: Hepatotoxicity; remark: listed apart in the source
[12] = system: Hepatotoxicity; remark: listed apart in the source
[13] = system: Hepatotoxicity; remark: listed apart in the source
[14] = system: Hepatotoxicity; remark: listed apart in the source

| Compound | HepSE_bilirubinemia [1] | HepSE_liver fatty [2] | HepSE_Combined Scores [3] | HepSE_hepatitis [4] | HepSE_cholecystitis [5] | HepSE_hepatic necrosis [6] | HepSE_liver disease [7] | HepSE_elevated liver function tests [8] | HepSE_liver function tests abnormal [9] | HepSE_cirrhosis [10] | HepSE_hepatomegaly [11] | HepSE_cholelithiasis [12] | HepSE_hepatic failure [13] | HepSE_jaundice [14] | further results |
| --- | --- | --- | --- | --- | --- | --- | --- | --- | --- | --- | --- | --- | --- | --- | --- |
| CCCC(=O)Nc1ccc(OCC(O)CNC(C)C)c(C(C)=O)c1 (configuration not stated) [ACEBUTOLOL] | 0 | 0 | 0 | 0 | 0 | 0 | 0 | 0 | 0 | 0 | 0 | 0 | 0 | 0 | – |
| CC(=O)Nc1nnc(S(N)(=O)=O)s1 [ACETAZOLAMIDE] | 0 | 0 | 2 | 0 | 0 | 1 | 0 | 0 | 0 | 0 | 0 | 0 | 0 | 1 | – |
| CC(=O)O [ACETIC ACID] | – | – | – | – | – | – | – | – | – | – | – | – | – | – | HepSE_bilirubinemia ([1]; Liver): 0; HepSE_liver fatty ([2]; Liver): 0; HepSE_Combined Scores ([3]; Liver): 0; HepSE_hepatitis ([4]; Liver): 0; HepSE_cholecystitis ([5]; Liver): 0; HepSE_hepatic necrosis ([6]; Liver): 0; HepSE_liver disease ([7]; Liver): 0; HepSE_elevated liver function tests ([8]; Liver): 0; HepSE_liver function tests abnormal ([9]; Liver): 0; HepSE_cirrhosis ([10]; Liver): 0; HepSE_hepatomegaly ([11]; Liver): 0; HepSE_cholelithiasis ([12]; Liver): 0; HepSE_hepatic failure ([13]; Liver): 0; HepSE_jaundice ([14]; Liver): 0 |
| CC(=O)OCC[N+](C)(C)C [ACETYLCHOLINE] | – | – | – | – | – | – | – | – | – | – | – | – | – | – | HepSE_bilirubinemia ([1]; Liver): 0; HepSE_liver fatty ([2]; Liver): 0; HepSE_Combined Scores ([3]; Liver): 0; HepSE_hepatitis ([4]; Liver): 0; HepSE_cholecystitis ([5]; Liver): 0; HepSE_hepatic necrosis ([6]; Liver): 0; HepSE_liver disease ([7]; Liver): 0; HepSE_elevated liver function tests ([8]; Liver): 0; HepSE_liver function tests abnormal ([9]; Liver): 0; HepSE_cirrhosis ([10]; Liver): 0; HepSE_hepatomegaly ([11]; Liver): 0; HepSE_cholelithiasis ([12]; Liver): 0; HepSE_hepatic failure ([13]; Liver): 0; HepSE_jaundice ([14]; Liver): 0 |
| CC(=O)N[C@@H](CS)C(=O)O [ACETYLCYSTEINE] | 0 | 0 | 0 | 0 | 0 | 0 | 0 | 0 | 0 | 0 | 0 | 0 | 0 | 0 | – |
| COc1cc(C)c(/C=C/C(C)=C/C=C/C(C)=C/C(=O)O)c(C)c1C [ACITRETIN] | 0 | 0 | 3 | 1 | 0 | 0 | 0 | 1 | 0 | 0 | 0 | 0 | 0 | 1 | – |
| Nc1nc2c(ncn2COCCO)c(=O)[nH]1 [ACYCLOVIR] | 1 | 0 | 4 | 1 | 0 | 0 | 0 | 1 | 0 | 0 | 0 | 0 | 0 | 1 | – |
| CC(C)(C)C(=O)OCOP(=O)(COCCn1cnc2c(N)ncnc21)OCOC(=O)C(C)(C)C [ADEFOVIR DIPIVOXIL] | 0 | 0 | 1 | 0 | 0 | 0 | 0 | 0 | 0 | 0 | 0 | 0 | 1 | 0 | – |
| Nc1ncnc2c1ncn2[C@@H]1O[C@H](CO)[C@@H](O)[C@H]1O [ADENOSINE] | 0 | 0 | 0 | 0 | 0 | 0 | 0 | 0 | 0 | 0 | 0 | 0 | 0 | 0 | – |
| CCCSc1ccc2nc(NC(=O)OC)[nH]c2c1 [ALBENDAZOLE] | 0 | 0 | 3 | 1 | 0 | 0 | 1 | 0 | 0 | 0 | 0 | 0 | 1 | 0 | – |
| CC(C)(C)NCC(O)c1ccc(O)c(CO)c1 (configuration not stated) [ALBUTEROL] | – | – | – | – | – | – | – | – | – | – | – | – | – | – | HepSE_bilirubinemia ([1]; Liver): 0; HepSE_liver fatty ([2]; Liver): 0; HepSE_Combined Scores ([3]; Liver): 0; HepSE_hepatitis ([4]; Liver): 0; HepSE_cholecystitis ([5]; Liver): 0; HepSE_hepatic necrosis ([6]; Liver): 0; HepSE_liver disease ([7]; Liver): 0; HepSE_elevated liver function tests ([8]; Liver): 0; HepSE_liver function tests abnormal ([9]; Liver): 0; HepSE_cirrhosis ([10]; Liver): 0; HepSE_hepatomegaly ([11]; Liver): 0; HepSE_cholelithiasis ([12]; Liver): 0; HepSE_hepatic failure ([13]; Liver): 0; HepSE_jaundice ([14]; Liver): 0 |
| C[C@@H]1C[C@H]2[C@H]3[C@H]([C@@H](O)C[C@]2(C)[C@@]1(O)C(=O)CO)[C@@]1(C)C=CC(=O)C=C1C[C@H]3Cl [ALCLOMETASONE] | 0 | 0 | 0 | 0 | 0 | 0 | 0 | 0 | 0 | 0 | 0 | 0 | 0 | 0 | – |
| COc1cc2nc(N(C)CCCNC(=O)C3CCCO3)nc(N)c2cc1OC (configuration not stated) [ALFUZOSIN] | 0 | 0 | 2 | 0 | 0 | 0 | 1 | 0 | 0 | 0 | 0 | 0 | 0 | 1 | – |
| Oc1ncnc2[nH]ncc12 [ALLOPURINOL] | 1 | 0 | 5 | 1 | 0 | 1 | 0 | 0 | 0 | 0 | 1 | 0 | 0 | 1 | – |
| CN(C)CCc1c[nH]c2ccc(CS(=O)(=O)N3CCCC3)cc12 [ALMOTRIPTAN] | 0 | 0 | 0 | 0 | 0 | 0 | 0 | 0 | 0 | 0 | 0 | 0 | 0 | 0 | – |
| Cc1[nH]cnc1CN1CCc2c(c3ccccc3n2C)C1=O [ALOSETRON] | 0 | 0 | 3 | 1 | 1 | 0 | 0 | 0 | 0 | 0 | 0 | 0 | 0 | 1 | – |
| Cc1nnc2n1-c1ccc(Cl)cc1C(c1ccccc1)=NC2 [ALPRAZOLAM] | 0 | 0 | 3 | 1 | 0 | 0 | 0 | 0 | 0 | 0 | 0 | 0 | 1 | 1 | – |
| CCCCC[C@H](O)/C=C/[C@H]1[C@H](O)CC(=O)[C@@H]1CCCCCCC(=O)O [ALPROSTADIL] | 1 | 0 | 1 | 0 | 0 | 0 | 0 | 0 | 0 | 0 | 0 | 0 | 0 | 0 | – |
